Drawing on patent publication US9073821B2, “Hydroxamic acid derivative” (priority 2010, dated 2015), this text covers IC50 for 33 compounds.

The first assay addresses Pseudomonas aeruginosa LpxC enzyme (Pseudomonas aeruginosa (strain ATCC 15692 / DSM 22644 / CIP 104116 / JCM 14847 / LMG 12228 / 1C / PRS 101 / PAO1), UniProt P47205). In words: biochemical. The note with it: class symbols A/B/C by IC50; Table 3; read-out: Enzyme inhibitory activity (inhibitory activity on Pseudomonas aeruginosa LpxC enzyme). It is filed as biochemical.
With `CCOC1CN(Cc2ccc(C#Cc3ccc(C(=O)N(C)C(C(=O)NC)C(=O)NO)cc3)c(F)c2)C1` (stereo not drawn) [Compound 564, 2-[{[4-({4-[(3-ethoxyazetidin-1-yl)methyl]-2-fluorophenyl}ethynyl)phenyl]carbonyl}(methyl)amino]-N-hydroxy-N′-methylpropanediamide], the IC50 was less than 10 nM.

In the case of `CNC(=O)[C@@](C)(C(=O)NO)N(C)C(=O)c1ccc(C#Cc2coc(CN3CCCOCC3)c2)cc1` [Compound 583, (2S)-N-hydroxy-N′,2-dimethyl-2-{methyl[(4-{[5-(1,4-oxazepan-4-ylmethyl)furan-3-yl]ethynyl}phenyl)carbonyl]amino}propanediamide], the IC50 is less than 10 nM.

`CNC(=O)C(C(=O)NO)N(C)C(=O)c1ccc(C#Cc2cnn(C)c2)cc1` (stereo not drawn) [Compound 504, N-hydroxy-N′-methyl-2-[methyl({4-[(1-methyl-1H-pyrazol-4-yl)ethynyl]phenyl}carbonyl)amino]propanediamide]: the IC50 lay within 10 to 100 nM.

In the case of `CNC(=O)C(C(=O)NO)N(C)C(=O)c1ccc(C#Cc2coc(COC)c2)cc1` (stereo not drawn) [Compound 514, N-hydroxy-2-{[(4-{[5-(methoxymethyl)furan-3-yl]ethynyl}phenyl)carbonyl](methyl)amino}-N′-methylpropanediamide], the IC50 was less than 10 nM.

For the compound `CNC(=O)C(C(=O)NO)N(C)C(=O)c1ccc(C#Cc2ccc(CN3CC4CC4C3)cc2)cc1` (stereo not drawn) [Compound 515, 2-{[(4-{[4-(3-azabicyclo[3.1.0]hex-3-ylmethyl)phenyl]ethynyl}phenyl)carbonyl](methyl)amino}-N-hydroxy-N′-methylpropanediamide], the IC50 is less than 10 nM.

Consider `CCn1cc(C#Cc2ccc(C(=O)N(C)C(C(=O)NC)C(=O)NO)cc2)cn1` (stereo not drawn) [Compound 517, 2-[({4-[(1-ethyl-1H-pyrazol-4-yl)ethynyl]phenyl}carbonyl)(methyl)amino]-N-hydroxy-N′-methylpropanediamide], for which the IC50 is 10 to 100 nM.

Still in this assay, the particulars now being: inhibitory activity on Pseudomonas aeruginosa LpxC enzyme, class symbols A/B/C; read-out: Enzyme inhibitory activity.
Consider `CC(C)(C)CNC(=O)C(NC(=O)c1ccc(-c2ccc(OCCO)cc2)cc1)C(=O)NO` (stereo not drawn) [Compound 136, N-(2,2-dimethylpropyl)-N′-hydroxy-2-({[4′-(2-hydroxyethoxy)biphenyl-4-yl]carbonyl}amino)propanediamide], for which the IC50 lay in the range of 10 to 100 nM.

Consider `CNC(=O)C(C(=O)NO)N(C)C(=O)c1ccc(-c2ccc(CCC(=O)N(C)C)cc2)cc1` (stereo not drawn) [Compound 266, 2-[({4′-[3-(dimethylamino)-3-oxopropyl]biphenyl-4-yl}carbonyl)(methyl)amino]-N-hydroxy-N′-methylpropanediamide], for which the IC50 was in the range of 10 to 100 nM.

In the case of `CNC(=O)C(C(=O)NO)N(C)C(=O)c1ccc(C#Cc2ccc(CCN3CCOCC3)cc2)cc1` (stereo not drawn) [Compound 206, N-hydroxy-N′-methyl-2-{methyl[4-({4-[2-(morpholin-4-yl)ethyl]phenyl}ethynyl)benzoyl]amino}propanediamide], the IC50 was less than 10 nM.

For the compound `CCCOc1ccc(-c2ccc(C(=O)N(C)C(C(=O)NC)C(=O)NO)cc2)cn1` (stereo not drawn) [Compound 467, N-hydroxy-N′-methyl-2-(methyl {[4-(6-propoxypyridin-3-yl)phenyl]carbonyl}amino)propanediamide], the IC50 is less than 10 nM.

As for `CNC(=O)C(C(=O)NO)N(C)C(=O)c1ccc(C#Cc2cccc(CNC3CC3)c2)cc1` (stereo not drawn) [Compound 379, 2-[{[4-({3-[(cyclopropylamino)methyl]phenyl}ethynyl)phenyl]carbonyl}(methyl)amino]-N-hydroxy-N′-methylpropanediamide], the IC50 was 10 to 100 nM.

On to `CNC(=O)C(C(=O)NO)N(C(=O)c1ccc(-c2ccccc2)cc1)C1CC1` (stereo not drawn) [Compound 127, 2-[(Biphenyl-4-ylcarbonyl)(cyclopropyl)amino]-N-hydroxy-N′-methylpropanediamide], for which the IC50 was less than 10 nM.

On to `CNC(=O)C(C(=O)NO)N(C)C(=O)c1ccc(-c2cnccn2)cc1` (stereo not drawn) [Compound 309, N-hydroxy-N′-methyl-2-(methyl {[4-(pyrazin-2-yl)phenyl]carbonyl}amino)propanediamide], for which the IC50 was greater than 100 nM.

Take `CNC(=O)C(C(=O)NO)N(C)C(=O)c1ccc(C#Cc2ccc(OC)nc2)cc1` (stereo not drawn) [Compound 219, N-hydroxy-2-[{4-[(6-methoxypyridin-3-yl)ethynyl]benzoyl}(methyl)amino]-N′-methylpropanediamide]: the IC50 is less than 10 nM.

Consider `CNC(=O)C(C(=O)NO)N(C)C(=O)c1ccc(C#Cc2ccc(CNCc3ncco3)cc2)cc1` (stereo not drawn) [Compound 485, N-hydroxy-N′-methyl-2-[methyl({4-[(4-{[(1,3-oxazol-2-ylmethyl)amino]methyl}phenyl)ethynyl]phenyl}carbonyl)amino]propanediamide], for which the IC50 is less than 10 nM.

Consider `CNC(=O)C(C(=O)NO)N(C)C(=O)c1ccc(-c2ccc3[nH]c(C)cc3c2)cc1` (stereo not drawn) [Compound 203, N-hydroxy-N′-methyl-2-{methyl[4-(2-methyl-1H-indol-5-yl)benzoyl]amino}propanediamide], for which the IC50 was less than 10 nM.

On to `CNC(=O)C(C(=O)NO)N(C)C(=O)c1ccc(-c2ccc3c(c2)ncn3C)cc1` (stereo not drawn) [Compound 281, N-hydroxy-N′-methyl-2-{methyl[4-(1-methyl-1H-benzimidazol-5-yl)benzoyl]amino}propanediamide], for which the IC50 lay within 10 to 100 nM.

With `CNC(=O)C(C)(C(=O)NO)N(C)C(=O)c1ccc(-c2ccccc2)cc1` (stereo not drawn) [Compound 324, 2-[(Biphenyl-4-ylcarbonyl)(methyl)amino]-N-hydroxy-N′,2-dimethylpropanediamide], the IC50 was less than 10 nM.

On to `CNC(=O)C(C(=O)NO)N(C)C(=O)c1ccc(-c2ccc(CCCO)cc2)cc1O` (stereo not drawn) [Compound 185, N-hydroxy-2-[{[3-hydroxy-4′-(3-hydroxypropyl)biphenyl-4-yl]carbonyl}(methyl)amino]-N′-methylpropanediamide], for which the IC50 was greater than 100 nM.

In the case of `CNC(=O)C(C(=O)NO)N(C)C(=O)c1ccc(-c2ccc(NCC3CC3)cc2)cc1` (stereo not drawn) [Compound 79, 2-[({4′-[(cyclopropylmethyl)amino]biphenyl-4-yl}carbonyl)(methyl)amino]-N-hydroxy-N′-methylpropanediamide], the IC50 is less than 10 nM.

With `CNC(=O)C(NC(=O)c1ccc(C#Cc2ccc(CN3CCCOCC3)cc2)cc1)C(=O)NO` (stereo not drawn) [Compound 117, N-hydroxy-N′-methyl-2-[(4-{[4-(1,4-oxazepan-4-ylmethyl)phenyl]ethynyl}benzoyl)amino]propanediamide], the IC50 was less than 10 nM.

Consider `CNC(=O)C(C(=O)NO)N(C)C(=O)c1ccc(-c2ccc(OCC3(CN4CCOCC4)CC3)cc2)cc1` (stereo not drawn) [Compound 102, N-hydroxy-N′-methyl-2-{methyl[(4′-{[1-(morpholin-4-ylmethyl)cyclopropyl]methoxy}biphenyl-4-yl)carbonyl]amino}propanediamide], for which the IC50 was 10 to 100 nM.

For `CNC(=O)C(C(=O)NO)N(C)C(=O)c1ccc(-c2ccc(-c3ccc(CN4CCOCC4)o3)cc2)cc1` (stereo not drawn) [Compound 479, N-hydroxy-N′-methyl-2-[methyl({4′-[5-(morpholin-4-ylmethyl)furan-2-yl]biphenyl-4-yl}carbonyl)amino]propanediamide], the IC50 was less than 10 nM.

For the compound `CNC(=O)C(C(=O)NO)N(C)C(=O)c1ccc(-c2ccc(C#CCO)cc2)cc1` (stereo not drawn) [Compound 389, N-hydroxy-2-[{[4′-(3-hydroxyprop-1-yn-1-yl)biphenyl-4-yl]carbonyl}(methyl)amino]-N′-methylpropanediamide], the IC50 was less than 10 nM.

On to `CNC(=O)[C@](C)(C(=O)NO)N(C)C(=O)c1ccc(C#Cc2ccc(CN3CCCOCC3)cc2)cc1` [Compound 377, (2R)-N-hydroxy-N′,2-dimethyl-2-{methyl[(4-{[4-(1,4-oxazepan-4-ylmethyl)phenyl]ethynyl}phenyl)carbonyl]amino}propanediamide], for which the IC50 was less than 10 nM.

On to `CNC(=O)C(C(=O)NO)N(C)C(=O)c1ccc(-c2ccc(OCc3ccccc3)nc2)cc1` (stereo not drawn) [Compound 468, 2-[({4-[6-(benzyloxy)pyridin-3-yl]phenyl}carbonyl)(methyl)amino]-N-hydroxy-N′-methylpropanediamide], for which the IC50 was less than 10 nM.

For `CNC(=O)C(C(=O)NO)N(C)C(=O)c1ccc(-c2ccc(C(C)O)cc2)cc1` (stereo not drawn) [Compound 261, N-hydroxy-2-[{[4′-(1-hydroxyethyl)biphenyl-4-yl]carbonyl}(methyl)amino]-N′-methylpropanediamide], the IC50 lay in the range of 10 to 100 nM.

Consider `CCCOc1ccc(-c2ccc(C(=O)N(C)C(C(=O)NC)C(=O)NO)cc2)cc1` (stereo not drawn) [Compound 212, N-hydroxy-N′-methyl-2-{methyl[(4′-propoxybiphenyl-4-yl)carbonyl]amino}propanediamide], for which the IC50 was less than 10 nM.

As for `CNC(=O)C(C(=O)NO)N(C)C(=O)c1ccc(-c2ccc(OCCCn3ccnc3)cc2)cc1` (stereo not drawn) [Compound 96, N-hydroxy-2-[({4′-[3-(1H-imidazol-1-yl)propoxy]biphenyl-4-yl}carbonyl)(methyl)amino]-N′-methylpropanediamide], the IC50 is less than 10 nM.

For `CNC(=O)C(C(=O)NO)N(C)C(=O)c1ccc(-c2cncc(C(F)(F)F)c2)cc1` (stereo not drawn) [Compound 446, N-hydroxy-N′-methyl-2-[methyl({4-[5-(trifluoromethyl)pyridin-3-yl]phenyl}carbonyl)amino]propanediamide], the IC50 was greater than 100 nM.

Take `CNC(=O)C(C(=O)NO)N(C)C(=O)c1ccc(Cc2ccccc2)cc1` (stereo not drawn) [Compound 445, 2-{[(4-benzylphenyl)carbonyl](methyl)amino}-N-hydroxy-N′-methylpropanediamide]: the IC50 was greater than 100 nM.

Consider `CNC(=O)C(C(=O)NO)N(C)C(=O)c1ccc(-c2ccc(CNC(C)=O)cc2)cc1` (stereo not drawn) [Compound 241, 2-[({4′-[(acetylamino)methyl]biphenyl-4-yl}carbonyl)(methyl)amino]-N-hydroxy-N′-methylpropanediamide], for which the IC50 is 10 to 100 nM.

In the case of `CNC(=O)C(C(=O)NO)N(C)C(=O)c1ccc(-c2ccc(C(C)(C)O)cc2)cc1` (stereo not drawn) [Compound 262, N-hydroxy-2-[{[4′-(2-hydroxypropan-2-yl)biphenyl-4-yl]carbonyl}(methyl)amino]-N′-methylpropanediamide], the IC50 lay in the range of 10 to 100 nM.
